These are literature values, as cited in PMC3065555 (European journal of medicinal chemistry, 2011).

The target of the series is SERCA (Oryctolagus cuniculus, UniProt P04191). The note with it: training set compounds previously characterized; ref [1], [6], [32].

The structures appear in SMILES notation.

Sequence of SERCA (P04191 1-994 isoform P04191-2): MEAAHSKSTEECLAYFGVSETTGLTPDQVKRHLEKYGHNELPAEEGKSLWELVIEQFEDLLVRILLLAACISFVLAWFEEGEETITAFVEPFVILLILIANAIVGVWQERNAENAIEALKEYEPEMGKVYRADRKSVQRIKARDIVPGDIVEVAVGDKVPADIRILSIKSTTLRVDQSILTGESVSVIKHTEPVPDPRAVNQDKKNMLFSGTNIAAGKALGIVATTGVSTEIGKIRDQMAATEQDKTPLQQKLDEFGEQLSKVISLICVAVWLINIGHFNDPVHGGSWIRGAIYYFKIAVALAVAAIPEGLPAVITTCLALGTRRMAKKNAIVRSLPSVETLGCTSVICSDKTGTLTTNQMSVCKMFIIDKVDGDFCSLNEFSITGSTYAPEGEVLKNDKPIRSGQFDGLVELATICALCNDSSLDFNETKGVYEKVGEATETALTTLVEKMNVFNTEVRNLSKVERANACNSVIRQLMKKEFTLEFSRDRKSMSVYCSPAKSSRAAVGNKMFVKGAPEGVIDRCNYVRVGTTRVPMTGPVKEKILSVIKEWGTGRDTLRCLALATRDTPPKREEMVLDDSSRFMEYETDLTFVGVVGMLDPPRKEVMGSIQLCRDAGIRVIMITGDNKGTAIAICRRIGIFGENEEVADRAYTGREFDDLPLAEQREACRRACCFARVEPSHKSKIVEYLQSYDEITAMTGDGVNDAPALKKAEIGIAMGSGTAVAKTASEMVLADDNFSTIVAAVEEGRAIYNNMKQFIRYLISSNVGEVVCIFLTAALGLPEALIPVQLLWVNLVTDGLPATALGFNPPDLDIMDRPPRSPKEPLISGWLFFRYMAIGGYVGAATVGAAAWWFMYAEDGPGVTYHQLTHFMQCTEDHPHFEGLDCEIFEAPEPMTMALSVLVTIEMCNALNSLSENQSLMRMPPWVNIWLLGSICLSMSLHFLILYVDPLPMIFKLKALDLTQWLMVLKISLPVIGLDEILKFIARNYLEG

In general, IC50 refers to the midpoint of a concentration-inhibition curve. `CC(C)(C)c1ccc(C(C)(C)C)c(O)c1` [2,5-di-tert-butylphenol]: the IC50 is 6.81 µM.
`CC(C)(C)c1ccc(C(C)(C)C)cc1` [1,4-di-tert-butylbenzene]: the IC50 result was “inactive”.
